Experimental data: paper PMC7794376 (Nature Communications, 2021)
“And” between values parts separate entries of the source, which are not always exact repeats. Equal values may be shown once. Read-outs that look alike come from different tables or passages of the source.

How the values were obtained:
[1] = test system: M. tuberculosis coaBC Tet-OFF conditional knockdown; assay type: cell-based, Mycobacterium tuberculosis; details: GAST/Fe minimal media
MtbCoaBC [2] = target: T1, MtbCoaBC (Mycobacterium tuberculosis, UniProt P9WNZ1); experiment: High-throughput end-point pyrophosphate quantification assay (Biomol Green); assay type: biochemical; details: MtbCoaB activity; end-point, 2 µM CTP, 40 µM L-cysteine, 30 µM PPA; read-out: IC50 biomol green assay
MtbCoaBC [3] = target: T1, MtbCoaBC; experiment: biochemical; assay type: biochemical; details: for activity at 0.015625 µM / activity at 0.03125 µM / activity at 0.0625 µM / activity at 0.25 µM / activity at 0.5 µM: relative to average DMSO CT; for Activity R1 / Activity R3: slope of absorbance at 360 vs time (s); for inhibition, IC50 MtbCoaBC 1b / remaining activity relative to control, IC50 MtbCoaBC 1b: three replicates, column head and unit not shown
human CoaB (HCoaB) = human CoaB (HCoaB) (Homo sapiens, UniProt Q9HAB8); experiment: EnzChek pyrophosphate assay, HCoaB; assay type: biochemical; details: for Activity: slope of absorbance at 360 nm vs time (s)
[4] = inhibitor concentration 1 (log 0)
[5] = inhibitor concentration 2 (log 0.30103)
[6] = 3.125 uM 1b, relative to average DMSO CT, replicates R1-R3
[7] = 6.25 uM 1b, relative to average DMSO CT, replicates R1-R3

Chain of human CoaB (HCoaB) (Q9HAB8 whole entry): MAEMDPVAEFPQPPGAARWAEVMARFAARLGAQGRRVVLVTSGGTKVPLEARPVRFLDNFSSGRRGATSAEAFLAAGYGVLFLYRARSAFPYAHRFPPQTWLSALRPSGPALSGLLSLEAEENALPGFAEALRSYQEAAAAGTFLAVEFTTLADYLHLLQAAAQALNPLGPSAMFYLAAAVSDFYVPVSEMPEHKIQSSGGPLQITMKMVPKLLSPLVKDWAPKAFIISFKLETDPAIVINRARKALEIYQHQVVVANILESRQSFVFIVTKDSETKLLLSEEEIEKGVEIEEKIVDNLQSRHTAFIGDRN
T1 sequence (P9WNZ1 whole entry): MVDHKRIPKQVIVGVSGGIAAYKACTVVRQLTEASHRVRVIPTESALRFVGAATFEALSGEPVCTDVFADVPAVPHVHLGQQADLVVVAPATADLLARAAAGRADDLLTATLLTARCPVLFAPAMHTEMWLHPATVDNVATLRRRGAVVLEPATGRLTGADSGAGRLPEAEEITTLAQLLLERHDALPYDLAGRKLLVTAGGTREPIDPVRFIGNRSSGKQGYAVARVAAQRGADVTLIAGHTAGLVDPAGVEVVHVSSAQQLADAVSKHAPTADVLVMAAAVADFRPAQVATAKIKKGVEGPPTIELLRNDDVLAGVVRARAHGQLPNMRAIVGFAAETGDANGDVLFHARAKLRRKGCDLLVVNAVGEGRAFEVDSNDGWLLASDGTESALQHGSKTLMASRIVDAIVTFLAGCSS

In the case of O=C(c1ccc(O)cc1)c1ccc(O)c(O)c1O [compound 1b], the “sensitisation on incremental silencing of CoaBC” value [1] is reported as “did not sensitise M. tuberculosis further”, the IC50 (MtbCoaBC [2]) is reported as 300 nM and the inhibition at 0.015625 µM (MtbCoaBC [3]; 0.015625 uM 1b, replicate R1, read-out: Inhibition % R1) is reported as 2.55%. The activity at 0.015625 µM (MtbCoaBC [3]; 0.015625 uM 1b, replicate R1, read-out: Activity % R1) was 97.4%, the “Activity R1” value (MtbCoaBC [3]; 0.015625 uM 1b, replicate R1) was 0.0001869 and the inhibition at 0.015625 µM (MtbCoaBC [3]; 0.015625 uM 1b, replicate R2, read-out: Inhibition % R2) was 2.2%. It also gave an activity at 0.015625 µM (MtbCoaBC [3]; 0.015625 uM 1b, replicate R2, read-out: Activity % R2) of 97.8%, an inhibition at 0.015625 µM (MtbCoaBC [3]; 0.015625 uM 1b, replicate R3, read-out: Inhibition % R3) of 1.31% and an activity at 0.015625 µM (MtbCoaBC [3]; 0.015625 uM 1b, replicate R3, read-out: Activity % R3) of 98.7%. For the same compound, the “Activity R3” value (MtbCoaBC [3]; 0.015625 uM 1b, replicate R3) was 0.0001893, the inhibition at 0.03125 µM (MtbCoaBC [3]; 0.03125 uM 1b, replicate R1, read-out: Inhibition % R1) was 6.71% and the activity at 0.03125 µM (MtbCoaBC [3]; 0.03125 uM 1b, replicate R1, read-out: Activity % R1) was 93.3%. For the same compound, the “Activity R1” value (MtbCoaBC [3]; 0.03125 uM 1b, replicate R1) was 0.0001789, the inhibition at 0.03125 µM (MtbCoaBC [3]; 0.03125 uM 1b, replicate R2, read-out: Inhibition % R2) was 2.99% and the activity at 0.03125 µM (MtbCoaBC [3]; 0.03125 uM 1b, replicate R2, read-out: Activity % R2) was 97%. For the same compound, the inhibition at 0.03125 µM (MtbCoaBC [3]; 0.03125 uM 1b, replicate R3, read-out: Inhibition % R3) was 1.51%, the activity at 0.03125 µM (MtbCoaBC [3]; 0.03125 uM 1b, replicate R3, read-out: Activity % R3) was 98.5% and the “Activity R3” value (MtbCoaBC [3]; 0.03125 uM 1b, replicate R3) was 0.0001889. The inhibition at 0.0625 µM (MtbCoaBC [3]; 0.0625 uM 1b, replicate R1, read-out: Inhibition % R1) was 9.45%, the activity at 0.0625 µM (MtbCoaBC [3]; 0.0625 uM 1b, replicate R1, read-out: Activity % R1) was 90.5% and the “Activity R1” value (MtbCoaBC [3]; 0.0625 uM 1b, replicate R1) was 0.0001736. For the same compound, the inhibition at 0.0625 µM (MtbCoaBC [3]; 0.0625 uM 1b, replicate R2, read-out: Inhibition % R2) was 5.43%, the activity at 0.0625 µM (MtbCoaBC [3]; 0.0625 uM 1b, replicate R2, read-out: Activity % R2) was 94.6% and the inhibition at 0.0625 µM (MtbCoaBC [3]; 0.0625 uM 1b, replicate R3, read-out: Inhibition % R3) was 12.9%. For the same compound, the activity at 0.0625 µM (MtbCoaBC [3]; 0.0625 uM 1b, replicate R3, read-out: Activity % R3) was 87.1%, the “Activity R3” value (MtbCoaBC [3]; 0.0625 uM 1b, replicate R3) was 0.0001671 and the inhibition at 0.25 µM (MtbCoaBC [3]; 0.25 uM 1b, replicate R1, read-out: Inhibition % R1) was 34.5%. For the same compound, the activity at 0.25 µM (MtbCoaBC [3]; 0.25 uM 1b, replicate R1, read-out: Activity % R1) was 65.5%, the “Activity R1” value (MtbCoaBC [3]; 0.25 uM 1b, replicate R1) was 0.0001256 and the inhibition at 0.25 µM (MtbCoaBC [3]; 0.25 uM 1b, replicate R2, read-out: Inhibition % R2) was 38.6%. The activity at 0.25 µM (MtbCoaBC [3]; 0.25 uM 1b, replicate R2, read-out: Activity % R2) was 61.4%, the inhibition at 0.25 µM (MtbCoaBC [3]; 0.25 uM 1b, replicate R3, read-out: Inhibition % R3) was 42.2% and the activity at 0.25 µM (MtbCoaBC [3]; 0.25 uM 1b, replicate R3, read-out: Activity % R3) was 57.8%. The “Activity R3” value (MtbCoaBC [3]; 0.25 uM 1b, replicate R3) was 0.0001108, the inhibition at 0.5 µM (MtbCoaBC [3]; 0.5 uM 1b, replicate R1, read-out: Inhibition % R1) was 89.6% and the activity at 0.5 µM (MtbCoaBC [3]; 0.5 uM 1b, replicate R1, read-out: Activity % R1) was 10.4%. The “Activity R1” value (MtbCoaBC [3]; 0.5 uM 1b, replicate R1) was 0.000019995, the inhibition at 0.5 µM (MtbCoaBC [3]; 0.5 uM 1b, replicate R2, read-out: Inhibition % R2) was 80.6% and the activity at 0.5 µM (MtbCoaBC [3]; 0.5 uM 1b, replicate R2, read-out: Activity % R2) was 19.4%. For the same compound, the inhibition at 0.5 µM (MtbCoaBC [3]; 0.5 uM 1b, replicate R3, read-out: Inhibition % R3) was 86.3%, the activity at 0.5 µM (MtbCoaBC [3]; 0.5 uM 1b, replicate R3, read-out: Activity % R3) was 13.7% and the “Activity R3” value (MtbCoaBC [3]; 0.5 uM 1b, replicate R3) was 0.000026339. For the same compound, the “inhibition, IC50 MtbCoaBC 1b” value (MtbCoaBC [3]; [4]) was 96.33 and 92.35 and 100.00, the “remaining activity relative to control, IC50 MtbCoaBC 1b” value (MtbCoaBC [3]; [4]) was -0.335 and 3.671 and 7.649 and the “inhibition, IC50 MtbCoaBC 1b” value (MtbCoaBC [3]; [5]) was 100.00. For the same compound, the “remaining activity relative to control, IC50 MtbCoaBC 1b” value (MtbCoaBC [3]; [5]) was -0.361 and -1.371 and -2.001, the IC50 (MtbCoaBC [3]; read-out: IC50 EnzChek MtbCoaBC) was 280 ± 50 nM and the IC50 (human CoaB (HCoaB); 1 µM enzyme, average of three independent experiments ± SD) was 122000 ± 22000 nM. The Activity % (human CoaB (HCoaB); [6]) was 96.65% and 97.82%, the activity at 3.125 µM (human CoaB (HCoaB); [6]) was 97.6% and the Inhibition % (human CoaB (HCoaB); 3.125 uM 1b, replicates R1-R3) was 2.18% and 2.43%. The inhibition at 3.125 µM (human CoaB (HCoaB); 3.125 uM 1b, replicates R1-R3) was 3.35%, the Activity (human CoaB (HCoaB); 3.125 uM 1b, replicates R1-R3) was 0.0001351 and 0.0001338 and 0.0001354 and the Activity % (human CoaB (HCoaB); [7]) was 95.26% and 96.32%. For the same compound, the activity at 6.25 µM (human CoaB (HCoaB); [7]) was 97.7%, the Inhibition % (human CoaB (HCoaB); 6.25 uM 1b, replicates R1-R3) was 4.74% and 3.68% and 2.34% and the Activity (human CoaB (HCoaB); 6.25 uM 1b, replicates R1-R3) was 0.0001352 and 0.0001319 and 0.0001333. For the same compound, the Activity % (human CoaB (HCoaB); 25 uM 1b, relative to average DMSO CT, replicates R1-R3) was 82.72% and 82.77%.
